Source: PubChem BioAssay (NCI)
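All cell lines were grown in 96-well plates and treated with compound for 48 hours. Here, GI50 denotes the concentration required for 50% inhibition of growth. TGI: total growth inhibition.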

How the values were obtained:
Assay in all cases: NCI tumour cell line growth inhibition, 48 h
[1] = test system: SW-620 colon
[2] = test system: OVCAR-3 ovarian
[3] = test system: M14 melanoma
[4] = test system: MDA-MB-468 breast
[5] = test system: T-47D breast
[6] = test system: NCI-H226 lung
[7] = test system: HCT-15 colon
[8] = test system: RXF 393 renal
[9] = test system: HCT-116 colon
[10] = test system: UACC-62 melanoma
[11] = test system: KM12 colon
[12] = test system: COLO 205 colon
[13] = test system: A549 NSCLC
[14] = test system: SK-MEL-28 melanoma
[15] = test system: MDA-MB-435
[16] = test system: OVCAR-8 ovarian
[17] = test system: TK-10 renal
[18] = test system: HOP-92 NSCLC
[19] = test system: U251 CNS
[20] = test system: NCI-H522 lung
[21] = test system: NCI-H460 lung
[22] = test system: A498 renal
[23] = test system: DU-145 prostate
[24] = test system: MALME-3M melanoma
[25] = test system: MOLT-4 leukemia
[26] = test system: MCF7 breast
[27] = test system: SK-MEL-2 melanoma
[28] = test system: HS 578T breast
[29] = test system: 786-0 renal
[30] = test system: RPMI-8226 leukemia
[31] = test system: HT29 colon
[32] = test system: SF-539 CNS
[33] = test system: HL-60(TB) leukemia
[34] = test system: EKVX NSCLC
[35] = test system: BT-549 breast
[36] = test system: UACC-257 melanoma
[37] = test system: HOP-62 NSCLC
[38] = test system: SF-268 CNS
[39] = test system: SR leukemia
[40] = test system: HCC-2998 colon
[41] = test system: SK-MEL-5 melanoma
[42] = test system: UO-31 renal
[43] = test system: SK-OV-3 ovarian
[44] = test system: IGROV1 ovarian
[45] = test system: NCI-H23 lung
[46] = test system: OVCAR-5 ovarian
[47] = test system: SNB-19 CNS
[48] = test system: ACHN renal
[49] = test system: LOX IMVI melanoma
[50] = test system: PC-3 prostate
[51] = test system: CCRF-CEM leukemia
[52] = test system: SNB-75 CNS
[53] = test system: SN12C renal
[54] = test system: OVCAR-4 ovarian
[55] = test system: CAKI-1 renal
[56] = test system: K-562 leukemia
[57] = test system: MDA-MB-231 breast
[58] = test system: SF-295 CNS

`O=C(/C=C/c1cccc(Br)c1)c1nc2ccccc2n1Cc1ccc(F)cc1` gave a GI50 [1] of 3800 nM, a TGI [1] of 14.6 µM and a GI50 [2] of 4.17 µM. The TGI [2] was 16.9 µM, the GI50 [3] was 10.6 µM and the TGI [3] was 26.1 µM. For the same compound, the GI50 [4] was 5.02 µM, the TGI [4] was 18.2 µM and the GI50 [5] was 5.01 µM. For the same compound, the TGI [5] was 84.2 µM, the GI50 [6] was 17 µM and the TGI [6] was 44 µM. It also gave a GI50 [7] of 3650 nM, a TGI [7] of 14.6 µM and a GI50 [8] of 4040 nM. The TGI [8] was 15.9 µM, the GI50 [9] was 3790 nM and the TGI [9] was 14.2 µM. It also gave a GI50 [10] of 4.67 µM, a TGI [10] of 18.2 µM and a GI50 [11] of 5.52 µM. For the same compound, the TGI [11] was 22.4 µM, the GI50 [12] was 16.6 µM and the TGI [12] was 36.2 µM. The GI50 [13] was 14.2 µM, the TGI [13] was 96.3 µM and the GI50 [14] was 9.33 µM. For the same compound, the TGI [14] was 23.1 µM, the GI50 [15] was 3.87 µM and the TGI [15] was 16.2 µM. The GI50 [16] was 5.05 µM, the TGI [16] was 27.1 µM and the GI50 [17] was 17.1 µM. For the same compound, the TGI [17] was 57.5 µM, the GI50 [18] was 3260 nM and the TGI [18] was 35 µM. It also gave a GI50 [19] of 5.49 µM, a TGI [19] of 20.3 µM and a GI50 [20] of 10.9 µM. The TGI [20] was 32.7 µM, the GI50 [21] was 4.65 µM and the TGI [21] was 20 µM. For the same compound, the GI50 [22] was 54.3 µM, the TGI [22] was greater than 100 µM and the GI50 [23] was 12.6 µM. It also gave a TGI [23] of 47.6 µM, a GI50 [24] of 11.6 µM and a TGI [24] of 26 µM. It also gave a GI50 [25] of 3850 nM, a TGI [25] greater than 100 µM and a GI50 [26] of 2830 nM. For the same compound, the TGI [26] was 16.7 µM, the GI50 [27] was 11.6 µM and the TGI [27] was 29.6 µM. For the same compound, the GI50 [28] was 9.74 µM, the TGI [28] was greater than 100 µM and the GI50 [29] was 11.8 µM. The TGI [29] was 26.2 µM, the GI50 [30] was 4.02 µM and the TGI [30] was greater than 100 µM. The GI50 [31] was 5.23 µM, the TGI [31] was 20.6 µM and the GI50 [32] was 13.6 µM. For the same compound, the TGI [32] was 26.8 µM, the GI50 [33] was 4060 nM and the TGI [33] was 26.7 µM. It also gave a GI50 [34] of 11.5 µM, a TGI [34] of 28.6 µM and a GI50 [35] of 3870 nM. The TGI [35] was 16.5 µM, the GI50 [36] was 10.7 µM and the TGI [36] was 31.1 µM. For the same compound, the GI50 [37] was 14.6 µM, the TGI [37] was 38.8 µM and the GI50 [38] was 16.7 µM. For the same compound, the TGI [38] was greater than 100 µM, the GI50 [39] was 4.73 µM and the TGI [39] was greater than 100 µM. It also gave a GI50 [40] of 11.4 µM, a TGI [40] of 24.2 µM and a GI50 [41] of 10.3 µM. For the same compound, the TGI [41] was 23.2 µM, the GI50 [42] was 5.17 µM and the TGI [42] was 18.9 µM. For the same compound, the GI50 [43] was 62.4 µM, the TGI [43] was greater than 100 µM and the GI50 [44] was 8.02 µM. It also gave a TGI [44] of 32.4 µM, a GI50 [45] of 9.04 µM and a TGI [45] of 26 µM. It also gave a GI50 [46] of 11.8 µM, a TGI [46] of 27.7 µM and a GI50 [47] of 11.2 µM. It also gave a TGI [47] of 25.3 µM, a GI50 [48] of 13.3 µM and a TGI [48] of 40.6 µM. For the same compound, the GI50 [49] was 2870 nM, the TGI [49] was 10.5 µM and the GI50 [50] was 6.42 µM. It also gave a TGI [50] of 34.3 µM, a GI50 [51] of 3.83 µM and a TGI [51] greater than 100 µM. For the same compound, the GI50 [52] was 3.24 µM, the TGI [52] was 68.1 µM and the GI50 [53] was 14.9 µM. For the same compound, the TGI [53] was 40.1 µM, the GI50 [54] was 14.5 µM and the TGI [54] was greater than 100 µM. For the same compound, the GI50 [55] was 5.72 µM, the TGI [55] was 32.5 µM and the GI50 [56] was 3.75 µM. The TGI [56] was greater than 100 µM, the GI50 [57] was 6.59 µM and the TGI [57] was 27.2 µM. For the same compound, the GI50 [58] was 11.3 µM and the TGI [58] was 27.1 µM.

With `O=C(/C=C/c1ccccc1)c1nc2ccccc2n1Cc1ccc(Br)cc1` the GI50 [1] was 2000 nM, the TGI [1] was 4.09 µM and the GI50 [2] was 2.28 µM. It also gave a TGI [2] of 5.56 µM, a GI50 [3] of 2.16 µM and a TGI [3] of 4.77 µM. For the same compound, the GI50 [4] was 1.89 µM, the TGI [4] was 3.81 µM and the GI50 [5] was 2.36 µM. The TGI [5] was 10.2 µM, the GI50 [6] was 3.8 µM and the TGI [6] was 15.9 µM. For the same compound, the GI50 [7] was 1670 nM, the TGI [7] was 3.47 µM and the GI50 [8] was 1510 nM. The TGI [8] was 2.84 µM, the GI50 [9] was 1710 nM and the TGI [9] was 3.16 µM. The GI50 [10] was 1.85 µM, the TGI [10] was 4.68 µM and the GI50 [11] was 2.95 µM. The TGI [11] was 10.2 µM, the GI50 [12] was 2.36 µM and the TGI [12] was 5 µM. For the same compound, the GI50 [13] was 3.51 µM, the TGI [13] was 20.4 µM and the GI50 [14] was 1.84 µM. For the same compound, the TGI [14] was 3.74 µM, the GI50 [15] was 2.25 µM and the TGI [15] was 5.95 µM. It also gave a GI50 [16] of 2.84 µM, a TGI [16] of 8.8 µM and a GI50 [17] of 2.57 µM. It also gave a TGI [17] of 7.63 µM, a GI50 [18] of 1920 nM and a TGI [18] of 8.58 µM. It also gave a GI50 [19] of 1.65 µM, a TGI [19] of 3.2 µM and a GI50 [20] of 1.84 µM. The TGI [20] was 4.04 µM, the GI50 [21] was 1.8 µM and the TGI [21] was 3.64 µM. It also gave a GI50 [22] of 15.1 µM, a TGI [22] of 28.4 µM and a GI50 [23] of 3.96 µM. The TGI [23] was 18.6 µM, the GI50 [24] was 1.94 µM and the TGI [24] was 4.63 µM. It also gave a GI50 [25] of 1840 nM, a TGI [25] of 5.47 µM and a GI50 [26] of 1780 nM. For the same compound, the TGI [26] was 6.26 µM, the GI50 [27] was 2.23 µM and the TGI [27] was 5.08 µM. It also gave a GI50 [28] of 4.22 µM, a TGI [28] of 53.4 µM and a GI50 [29] of 1.79 µM. It also gave a TGI [29] of 3.34 µM, a GI50 [31] of 2.91 µM and a TGI [31] of 7.34 µM. The GI50 [32] was 1.86 µM, the TGI [32] was 3.54 µM and the GI50 [33] was 1610 nM. The TGI [33] was 4.17 µM, the GI50 [34] was 2.75 µM and the TGI [34] was 8.44 µM. The GI50 [35] was 1930 nM, the TGI [35] was 4.7 µM and the GI50 [36] was 3.12 µM. For the same compound, the TGI [36] was 11.9 µM, the GI50 [37] was 2.21 µM and the TGI [37] was 5.09 µM. It also gave a GI50 [38] of 6.92 µM, a TGI [38] greater than 100 µM and a GI50 [39] of 1.97 µM. The TGI [39] was 6.01 µM, the GI50 [40] was 1.83 µM and the TGI [40] was 3.42 µM. The GI50 [41] was 2.44 µM, the TGI [41] was 6.95 µM and the GI50 [42] was 1.46 µM. For the same compound, the TGI [42] was 2.97 µM, the GI50 [43] was 13.2 µM and the TGI [43] was 57.6 µM. The GI50 [44] was 2.32 µM, the TGI [44] was 5.53 µM and the GI50 [45] was 2.01 µM. The TGI [45] was 4.29 µM, the GI50 [46] was 2.2 µM and the TGI [46] was 4.54 µM. For the same compound, the GI50 [47] was 1.81 µM, the TGI [47] was 3.64 µM and the GI50 [48] was 3.12 µM. The TGI [48] was 10.1 µM, the GI50 [49] was 1650 nM and the TGI [49] was 3.12 µM. It also gave a GI50 [50] of 3.14 µM, a TGI [50] of 9.31 µM and a GI50 [52] of 3.83 µM. For the same compound, the TGI [52] was 22.1 µM, the GI50 [53] was 3.46 µM and the TGI [53] was 12.4 µM. The GI50 [54] was 8.7 µM, the TGI [54] was 81.5 µM and the GI50 [55] was 2.6 µM. The TGI [55] was 11.2 µM, the GI50 [56] was 2.39 µM and the TGI [56] was 6.6 µM. For the same compound, the GI50 [57] was 2.26 µM, the TGI [57] was 5.16 µM and the GI50 [58] was 2.22 µM. The TGI [58] was 5.25 µM.
